Data as given in article PMC8478262 (Blood Cancer Discovery, 2021).
Where two headings read alike, the source gives them in different places. Each block holds one molecule with its values, some of them ahead of it.

Columns and labels:
[1] = tested on: MOLM-14 cells; type: cell-based; conditions: for increase in IC50 (inhibition) in the presence of 50% human plasma: 50% human plasma vs 10% FBS
[2] = tested on: FLT3; type: cell-based
[3] = tested on: Ba/F3-FLT3/ITD-Luc cells; type: in vivo, BALB/c mice
[4] = tested on: HL-60 cells; experiment: Antiproliferative effect of staurosporine on HL-60 cells in the presence of AGP; type: cell-based; conditions: until saturating concentrations of drug were used
[5] = Human AGP levels and tolerability in mice after intraperitoneal injection; type: in vivo; conditions: 0.3 g/kg i.p.

Molecule: CCc1nc(C(N)=O)c(Nc2ccc(N3CCC(N4CCN(C)CC4)CC3)c(OC)c2)nc1NC1CCOCC1 [gilteritinib]
effect of plasma proteins on activity ([1]; 50% human plasma or 50 mg/dL AGP, 48 h MTT): minimally affected

increase in IC50 (inhibition) in the presence of 50% human plasma ([1]; 48 h MTT): greater than 100 fold
IC50 increase by bovine AGP ([1]; bovine AGP adjusted to human-comparable levels): ~5 fold
Molecule: C[C@]12O[C@H](C[C@]1(O)CO)n1c3ccccc3c3c4c(c5c6ccccc6n2c5c31)CNC4=O [lestaurtinib]
IC50 in 50% human plasma compared with 10% FBS ([1]; 50% human plasma from healthy donors, 48 h): IC50s were no longer reached
activity across a range of AGP concentrations ([1]; AGP 31 µg/mL – 2 mg/mL, 48 h MTT): appreciable activity is seen only at AGP concentrations less than one tenth of physiologic human levels
FLT3 phosphorylation inhibition in the presence of human plasma ([2]; 10 nmol/L and 100 nmol/L TKI, 50% human plasma): no appreciable FLT3 TKI activity

Molecule: CO[C@@H]1[C@H](N(C)C(=O)c2ccccc2)C[C@H]2O[C@]1(C)n1c3ccccc3c3c4c(c5c6ccccc6n2c5c31)C(=O)NC4 [midostaurin]
response of transplanted FLT3/ITD cells (bioluminescence day 9) ([3]; midostaurin alone, oral gavage 4 days): regression of the cells
response of transplanted FLT3/ITD cells (bioluminescence day 9) ([3]; midostaurin plus intraperitoneal human AGP): progression of the cells comparable with that seen in the control animals

Molecule: CC#C[C@]1(O)CC[C@H]2[C@@H]3CCC4=CC(=O)CCC4=C3[C@@H](c3ccc(N(C)C)cc3)C[C@@]21C [mifepristone]
effect of mifepristone alone on cell growth ([1]; at concentrations of maximal effect, no TKI): no appreciable effect on cell growth
impact upon TTT-3002 dose–response curves in the absence of AGP ([1]; no AGP): had no impact
effect alone upon FLT3 autophosphorylation or downstream signaling ([2]; mifepristone alone): no effect
response of transplanted FLT3/ITD cells (bioluminescence day 9) ([3]; midostaurin plus human AGP plus oral mifepristone): regression of the transplanted cells comparable with those of the midostaurin alone–treated mice

increase in IC50 (inhibition) in the presence of 50% human plasma ([1]; 48 h MTT): 37 fold
Molecule: CC(C)(C)c1cc(NC(=O)Nc2ccc(-c3cn4c(n3)sc3cc(OCCN5CCOCC5)ccc34)cc2)no1 [quizartinib]

increase in IC50 (inhibition) in the presence of 50% human plasma ([1]; 48 h MTT): greater than 100 fold
Molecule: CNC(=O)c1cc(Oc2ccc(NC(=O)Nc3ccc(Cl)c(C(F)(F)F)c3)cc2)ccn1 [sorafenib]

Molecule: CN[C@@H]1C[C@H]2O[C@@](C)([C@@H]1OC)n1c3ccccc3c3c4c(c5c6ccccc6n2c5c31)C(=O)NC4 [staurosporine]
antiproliferative activity in the presence of AGP [4]: no appreciable activity

Molecule: human AGP: alpha-1-acid glycoprotein purified from human plasma (Sigma), injected i.p. into mice
terminal half-life [5]: approximately 17 hours
